Assay results from patent publication US4623662A, “Antiatherosclerotic ureas and thioureas” (American Cyanamid Company, priority 1985, dated 1986).
Like-named read-outs stand apart in the source and are kept apart here.

Columns and labels:
[1] = target: T1, fatty acyl CoA: cholesterol acyl transferase (ACAT) (Rattus norvegicus, UniProt O70536); assay: Inhibition of fatty acyl CoA:cholesterol acyl transferase (ACAT), rat adrenal enzyme; assay type: biochemical; conditions: for IC50: several concentrations
T1 construct: The supernatant, containing the microsomal fraction, served as the source of the cholesterol-esterifying enzyme; from tissue; host or cells: rat adrenals, supernatant of 1,000 x g centrifugation containing the microsomal fraction
T1 sequence (O70536 1-545): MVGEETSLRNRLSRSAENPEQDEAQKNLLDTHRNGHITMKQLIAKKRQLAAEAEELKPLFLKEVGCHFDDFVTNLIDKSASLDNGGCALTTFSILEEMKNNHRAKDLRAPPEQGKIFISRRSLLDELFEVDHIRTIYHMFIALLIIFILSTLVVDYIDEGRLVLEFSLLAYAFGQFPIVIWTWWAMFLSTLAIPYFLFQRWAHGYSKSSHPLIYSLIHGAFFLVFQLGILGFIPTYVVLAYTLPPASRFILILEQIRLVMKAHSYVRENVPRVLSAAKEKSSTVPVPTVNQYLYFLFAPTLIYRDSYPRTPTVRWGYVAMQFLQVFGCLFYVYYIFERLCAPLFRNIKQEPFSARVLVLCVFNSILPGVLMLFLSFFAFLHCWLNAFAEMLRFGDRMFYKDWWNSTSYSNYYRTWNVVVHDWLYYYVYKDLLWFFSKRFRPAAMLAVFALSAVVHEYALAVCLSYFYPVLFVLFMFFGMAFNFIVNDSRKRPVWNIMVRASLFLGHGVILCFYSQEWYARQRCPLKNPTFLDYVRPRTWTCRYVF
Method in brief: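 Read-out was scintillation counting of [14C]cholesteryl ester, isolated by TLC, after 10 min at 37° C with [14C]oleoyl CoA. Beforehand, compound (final 5.2 μg/ml in single-concentration tests) was preincubated 10 min at 37° C with BSA and rat adrenal microsomal supernatant in pH 7.4 phosphate. Results given as percent inhibition versus control or IC50 over several concentrations.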

cholesterol absorption = assay: Inhibition of cholesterol absorption in rats fed 1% cholesterol:0.5% cholic acid diet; assay type: in vivo, male Sprague-Dawley rats; conditions: po, 336 h, rat, dose .03% of the diet, 2 weeks
Method in brief: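 Compound was mixed into the diet (0.001-0.03%) of male Sprague-Dawley rats, 150-170 g, on a 1% cholesterol/0.5% cholic acid regimen for 2 weeks. At sacrifice, serum cholesterol (enzymatic) and liver neutral-sterol cholesterol were measured; values given as percent of compound-free control rats.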

[2] = read-out: LS (liver sterol), percentage of control values
[3] = read-out: SS (serum sterol), percentage of control values
[4] = rat adrenal ACAT, final concentration 5.2 μg/ml, read-out: % Inhibition

Row | Compound | inhibition at 5.2 µg/mL [1] | response vs control in vivo at 0.03 % (cholesterol absorption; [2]) | response vs control in vivo at 0.03 % (cholesterol absorption; [3]) | IC50 ([1]; rat adrenal ACAT) | inhibition at 5.2 µg/mL [1, 4]
1 | CCCCc1ccc(CN(CCCCC(C)(C)C)C(=O)Nc2ccc(Cl)cc2C)cc1 [1-(5,5-Dimethylhexyl)-1-[4-(n-butyl)benzyl]-3-(4-chloro-2-methylphenyl)urea] | 90% | 34% | 42% | – | –
2 | CC(C)CCN(Cc1ccc(C(C)C)cc1)C(=O)Nc1c(F)cc(F)cc1F [1-(Isopentyl)-1-[4-(isopropyl)benzyl]-3-(2,4,6-trifluorophenyl)urea] | – | 35% | 31% | 530 nM | –
3 | CC(C)CCN(Cc1ccc(C(C)C)cc1)C(=O)Nc1ccc(F)cc1F [1-(Isopentyl)-1-[4-(isopropyl)benzyl]-3-(2,4-difluorophenyl)urea] | – | 37% | 49% | 3370 nM | –
4 | Cc1cc(Cl)cc(C)c1NC(=O)N(CCC(C)C)Cc1ccc(C(C)C)cc1 [1-(Isopentyl)-1-[4-(isopropyl)benzyl]-3-(4-chloro-2,6-dimethylphenyl)urea] | – | 23% | 23% | 540 nM | –
5 | CCCCCCCOc1ccc(CN(CCCC)C(=O)Nc2c(C)cc(C)cc2C)cc1 [1-(n-Butyl)-1-(4-heptyloxybenzyl)-3-(2,4,6-trimethylphenyl)urea] | 97.3% | 31% | 66% | – | –
6 | CCCCN(Cc1ccccc1)C(=O)Nc1ccc(Cl)cc1C [1-(n-Butyl)-1-benzyl-3-(4-chloro-2-methylphenyl)urea] | – | 62% | 72% | – | 89%
7 | CCCCCCCN(CCc1ccccc1)C(=O)Nc1ccc(Cl)cc1Cl [1-(n-Heptyl)-1-(2-phenylethyl)-3-(2,4-dichlorophenyl)urea] | – | 88% | 81% | – | 91.8%
8 | CCCCCCCN(CCc1ccccc1)C(=O)Nc1ccc(F)cc1F [1-(n-Heptyl)-1-(2-phenylethyl)-3-(2,4-difluorophenyl)urea] | – | 57% | 59% | – | 94.1%
9 | CCCCCCCN(CCc1ccccc1)C(=O)Nc1ccc(C)cc1C [1-(n-Heptyl)-1-(2-phenylethyl)-3-(2,4-dimethylphenyl)urea] | – | 36% | 57% | – | 95.7%
10 | CCCCCCCN(CCc1ccccc1)C(=O)Nc1ccc(Cl)cc1C [1-(n-Heptyl)-1-(2-phenylethyl)-3-(2-methyl-4-chlorophenyl)urea] | – | 49% | 66% | – | 93.8%
11 | CCCCCCCN(CCc1ccccc1)C(=O)Nc1ccc(Cl)cc1C(F)(F)F [1-(n-Heptyl)-1-(2-phenylethyl)-3-(2-trifluoromethyl-4-chlorophenyl)urea] | 88.3% | 80% | 79% | – | –
12 | CCCCCCCN(Cc1ccc(OCCCC)cc1)C(=O)Nc1cc(C)c(C)cc1C [1-(n-Heptyl)-1-(4-butyloxybenzyl)-3-(2,4,5-trimethylphenyl)urea] | – | 17% | 32% | – | 95.6%
13 | CCCCCCCN(Cc1ccc(OCCCC)cc1)C(=O)Nc1ccc(C)cc1C [1-(n-Heptyl)-1-(4-butyloxybenzyl)-3-(2,4-dimethylphenyl)urea] | – | 22% | 26% | – | 94.6%
14 | CCCCCCCN(Cc1ccc(OCCCC)cc1)C(=O)Nc1c(Cl)cc(Cl)cc1Cl [1-(n-Heptyl)-1-(4-n-butoxybenzyl)-3-(2,4,6-trichlorophenyl)urea] | 90% | 11% | 35% | – | –
15 | CCCCCCCN(Cc1ccc(OCCCC)cc1)C(=O)Nc1ccc(F)cc1F [1-(n-Heptyl)-1-(4-n-butoxybenzyl)-3-(2,4-difluorophenyl)urea] | – | 25% | 63% | – | 82.7%
16 | CCCCCCCN(Cc1ccc(OCCCC)cc1)C(=O)Nc1ccc(Cl)cc1C [1-(n-Heptyl)-1-(4-n-butoxybenzyl)-3-(2-methyl-4-chlorophenyl)urea] | – | 15% | 53% | – | 91.7%
17 | CCCCCCCN(Cc1ccc(OCCCC)cc1)C(=O)Nc1cccc(C(F)(F)F)c1 [1-(n-Heptyl)-1-(4-n-butoxybenzyl)-3-(3-trifluoromethylphenyl)urea] | – | 86% | 80% | – | 82.4%
18 | CCCCCCCN(Cc1ccc(CCCC)cc1)C(=O)Nc1cc(C)c(C)cc1C [1-(n-Heptyl)-1-(4-n-butylbenzyl)-3-(2,4,5-trimethylphenyl)urea] | – | 10% | 33% | – | 95.3%
19 | CCCCCCCN(Cc1ccc(CCCC)cc1)C(=O)Nc1c(Cl)cc(Cl)cc1Cl [1-(n-Heptyl)-1-(4-n-butylbenzyl)-3-(2,4,6-trichlorophenyl)urea] | 90% | 8% | 28% | – | –
20 | CCCCCCCN(Cc1ccc(CCCC)cc1)C(=O)Nc1ccc(Cl)cc1Cl [1-(n-Heptyl)-1-(4-n-butylbenzyl)-3-(2,4-dichlorophenyl)urea] | – | 50% | 58% | – | 80%
21 | CCCCCCCN(Cc1ccc(CCCC)cc1)C(=O)Nc1ccc(C)cc1C [1-(n-Heptyl)-1-(4-n-butylbenzyl)-3-(2,4-dimethylphenyl)urea] | – | 14% | 46% | – | 94.8%
22 | CCCCCCCN(Cc1ccc(CCCC)cc1)C(=O)Nc1ccc(Cl)cc1C [1-(n-Heptyl)-1-(4-n-butylbenzyl)-3-(2-methyl-4-chlorophenyl)urea] | – | 16% | 35% | – | 92.5%
23 | CCCCCCCN(Cc1ccc(CCCC)cc1)C(=O)Nc1ccccc1C [1-(n-Heptyl)-1-(4-n-butylbenzyl)-3-(2-methylphenyl)urea] | – | 29% | 35% | – | 97.4%
24 | CCCCCCCN(Cc1ccc(CCCC)cc1)C(=O)Nc1ccc(Cl)cc1C(F)(F)F [1-(n-Heptyl)-1-(4-n-butylbenzyl)-3-(2-trifluoromethyl-4-chlorophenyl)urea] | 90% | 47% | 63% | – | –
25 | CCCCCCCN(Cc1ccc(CCCC)cc1)C(=O)Nc1cccc(C)c1 [1-(n-Heptyl)-1-(4-n-butylbenzyl)-3-(3-methylphenyl)urea] | – | 42% | 49% | – | 93.8%
26 | CCCCCCCN(Cc1ccc(CCCC)cc1)C(=O)Nc1ccc(C(=O)OCC)cc1 [1-(n-Heptyl)-1-(4-n-butylbenzyl)-3-(4-carboethoxyphenyl)urea] | – | 84% | 88% | – | 92.4%
